Data: US5198542A, “DNA encoding a pitvitary adenylate cyclase activating protein and use thereof” (Takeda Chemical Industries, Inc., priority 1989, dated 1993)
Read-outs that look alike come from different tables or passages of the source. Ends that are not written are not given here.

How the values were obtained:
[1] = hypotensive activity in male Wistar rats under nembutal anesthesia; assay type: in vivo, rat
Procedure: Using male Wistar rats having a body weight of 350 g under nembutal anesthesia, the hypotensive activity was measured.

adenylate cyclase = details: rat pituicytes

Substance	hypotensive activity ([1]; dosage 0.3 n mole/kg) [mm Hg]	hypotensive activity ([1]; dosage 1.0 n mole/kg) [mm Hg]	hypotensive activity ([1]; dosage 3.0 n mole/kg) [mm Hg]	cAMP (M ± SEM) (adenylate cyclase; peptide 10^-7 M) [p mol/ml]	cAMP (M ± SEM) (adenylate cyclase; peptide 10^-8 M) [p mol/ml]	cAMP (M ± SEM) (adenylate cyclase; peptide 10^-9 M) [p mol/ml]	cAMP (M ± SEM) (adenylate cyclase; peptide 10^-10 M) [p mol/ml]	cAMP (M ± SEM) (adenylate cyclase; peptide 10^-11 M) [p mol/ml]	cAMP (M ± SEM) (adenylate cyclase; peptide 10^-12 M) [p mol/ml]
PACAP38 NH2: PACAP38 NH2 synthesized on p-methyl BHA resin according to the amino acid sequence of PACAP38 (Example 5) (HSDGIFTDSYSRYRKQMAVKKYLAAVLGKRYKQRVKNK-NH2; UniProt P18509 132-169, looked up)	3.2 ± 1.9	17.4 ± 2.4	29.8 ± 3.6	–	–	–	–	–	–
Syn.27p-NH2: synthesized 27-NH2, the 1st to 27th positions of mature PACAP38, formula (1")	14.5 ± 3.1	51.9 ± 9.6	4.1	9.20 ± 0.20	9.20 ± 0.00	7.90 ± 0.30	4.00 ± 0.20	2.55 ± 0.15	2.05 ± 0.15
